Measurements from article PMC7899551, “Phase 1 study of Z-endoxifen in patients with advanced gynecologic, desmoid, and hormone receptor-positive solid tumors” (Oncotarget, 2021).
“Also recorded” adds a separate entry of the source.

Test system: gynecologic tumors, desmoid tumors, hormone receptor-positive solid tumors
Assay: Clinical outcome (RECIST 1.1 response, cycles on study)
Type: in vivo, human
Conditions: for prolonged disease stabilization: desmoid
Method: This study enrolled patients ≥ 18 years of age with gynecological tumors, desmoid tumors, histologically-documented HR+ (ER+/PR+, ER+/PR-, or ER-/PR+) breast cancer, or other solid tumors that were ER+ or PR+ by immunohistochemistry (any positive expression). […] All other patients must have progressed on at least one line of standard-of-care therapy.
Eye examinations were performed at baseline, every six months while on study, and if clinically indicated. CT scans were performed at baseline, and tumor response was assessed every 2 cycles (8 weeks; every 16 weeks for patients on study for more than 12 months) based on the Response Evaluation Criteria in Solid Tumors (RECIST) version 1.1 [39]. A confirmatory scan was performed after at least 4 weeks to confirm objective response.

[1] = patient 7, fallopian tube cancer

SMILES: CC/C(=C(\c1ccc(O)cc1)c1ccc(OCCNC)cc1)c1ccccc1 [Z-endoxifen]
- mean number of cycles completed (3 ER+/PR- breast cancer patients): 3.0 ± 2.6 cycles
- mean number of cycles completed (6 ER+/PR+ breast cancer patients): 6.7 ± 4.4 cycles
- disease stabilizations of ≥ 6 cycles (20 evaluable patients with gynecologic tumors (patients 20, 30, 31)): 3 patients
- partial responses (34 evaluable patients): Three patients had partial responses; also recorded: Three patients in this study experienced partial responses
- patients with stable disease ≥ 6 cycles (34 evaluable patients): 8 patients
- treatment cycles on study, average (34 evaluable patients): 7.2 cycles
- treatment cycles on study, median (34 evaluable patients): 4 cycles
- treatment cycles on study, range (34 evaluable patients): 1–62 cycles
- Clinical Benefit (partial response or stable disease for at least 6 cycles) (Breast cancer (n = 9)): 4 patients
- CBR (partial response or stable disease ≥ 6 cycles) (DL1 to DL5, 20 to 140 mg daily, 3/16 patients): 18.8%
- CBR (partial response or stable disease ≥ 6 cycles) (DL6 to DL8, 200 to 360 mg daily, 8/18 patients): 44.4%
- Clinical Benefit (partial response or stable disease for at least 6 cycles) (Desmoid (n = 4)): 3 patients
- mean cycles completed on study (ER+ breast cancer): 5.1 ± 4.4 cycles
- mean cycles on study (ER+ ovarian cancer, 4 patients): 4.0 ± 4.0 cycles
- Clinical Benefit (partial response or stable disease for at least 6 cycles) (Fallopian tube cancer (n = 2)): 1 patients
- Clinical Benefit (partial response or stable disease for at least 6 cycles) (Granulosa cell ovarian (n = 2)): 0 patients
- Clinical Benefit (partial response or stable disease for at least 6 cycles) (Ovarian cancer (n = 9)): 2 patients
- Clinical Benefit (partial response or stable disease for at least 6 cycles) (Total of Supplementary Table 1 (endometrial patient 31 not included)): 10 patients
- overall CBR (partial response or stable disease ≥ 6 cycles) (all dose levels): 32.5%
- CBR (hormone receptor-positive breast cancer, 4/9 patients): 44%
- clinical response [1]: partial response
- cycles on study [1]: 14 cycles
- clinical response (patient 23, desmoid fibromatosis, prior progression on tamoxifen): partial response
- prolonged disease stabilization (patient 28 (DL7)): 11 cycles
- stable disease duration (patient 31, endometrial cancer): 7 cycles
- clinical response (patient 33 (DL8), breast cancer): partial response
- prolonged disease stabilization (patient 35 (DL8), prior progression on tamoxifen): 24 cycles
- stable disease duration (patients 3, 10, and 21 (DL1, DL3, DL6), breast cancer): ≥ 6 cycles
- CBR (patients with desmoid tumors, 3/4 patients): 75%
- CBR (patients with gynecologic malignancies, 4/20 patients): 20%
- mean cycles on study (undetermined ER status ovarian cancer, n = 5): 2.0 ± 1.2 cycles
